The values that follow come from US8911953B2, “TDF-related compounds and analogs thereof, analogs and bioactive fragments” (Thrasos Innovation, Inc., priority 2005, dated 2014).

Positions of bridges follow the written chain, without caps; N, C: chain ends. No end group written: not given here.

Assay [1] has as its system NTN mice. As to the kind of experiment: Nephrotoxic serum nephritis (NTN) model of chronic renal failure. It is filed as in vivo, mouse. The note with it: oral 5 mg/kg/24 hr, weeks 6-9. The source says:
Attenuation of renal fibrosis progression by TDFRP compound in the chronic renal failure mouse model, nephrotoxic serum nephritis (NTN). A: NTN Model Experimental Protocol. Nephrotoxic serum was given intravenously on Day 0 (D0) and animals were sacrificed either at 6 weeks or 9 weeks. Two different drug regimens were used: treatment from weeks 1-6 or from weeks 6-9. B: Kidney section of 6-9 week, vehicle-treated […] animal, C: Kidney section of animal received oral administration of TDFRP compound (SEQ ID NO 45) (5 mg/kg/24 hr) from weeks 6-9.
Renal fibrosis involves interestitial fibrosis, tubular atrophy, and glomerulosclerosis. The mouse nephrotoxic serum nephritis (NTN) renal fibrosis model mimics human chronic renal injury. NTN mice develop glomerulonephritis following injection with nephrotoxic serum (NTS), which progresses to tubulointerstitial disease and eventually renal fibrosis after 6 weeks (see Lloyd, et al. (1997) J. Exp. Med. 185, 1371-1380.; Zeisberg et al. (2003) Nat. Med. 9, 964-968.)
Nephrotoxic serum nephritis (NTN) is a model of progressive chronic renal injury. Mice given injections of nephrotoxic serum (NTS) develop glomerulonephritis, leading to tubulointerstitial disease associated with EMT, and ultimately renal fibrosis, over a period of about six weeks. […] In these studies, BMP-7 was able to restore expression of E-cadherin proteins in previously damaged tubules. […] For a review of the above see, Zeisberg et al., Nature Medicine, 9; 7 pp 964-968, (2003) and Kalluri et al., J. Clin Investigation 112:1776-1784 (2003).

Assay [2] relates to rat osteosarcoma (17/2.8) cells. As to the kind of experiment: Rat osteosarcoma (ROS) cell-based alkaline phosphatase assay. Particulars: 0.02-200 uM, 2 days, relative to BMP-7 standard. On the procedure: BMP interactions with Type I and Type II receptors can induce alkaline phosphatase activity, a marker for osteoblast activity, in ROS cells. An assay procedure as described in Maliakal, J. C., Asahina, I., Hauschka, P. V., and Sampath, T. K. (1994) Growth factors 11, 227-234, was used to determine the biological activities of TDFRP compounds. In a typical experiment, rat osteosarcoma (17/2.8) cells are plated in 96 well plates (3.0×10^4 cells/well) and incubated overnight at 37 C in 5-6% CO2 incubator. The next day, healthy and confluent cells are treated with increasing concentrations of BMP-7 standard (1-10,000 ng/ml) served as positive control or TDFRP compounds (0.02-200 uM) prepared in medium containing 1% FBS and incubated for 2 days at 37 C in 5-6% CO2 incubator. The cellular content of alkaline phosphatase activity is determined by the method of Reddi and Huggins (Reddi, A. H., and Huggins, C. B (1972) Proc. Natl. Acad. Sci. USA 69, 1601-1605). Enzyme estimations are performed in 96 well plates. Following removal of culture medium, cells are washed with pre-warmed PBS (150 ul) and incubated in 100 ul of pre-warmed 1% Triton X-100 for 30 minutes at 37 C. Plates are centrifuged for 10 minutes at full speed, and recovered samples (15 ul) are assayed for enzyme activity by adding 90 ul p-nitrophenyl phosphate (Sigma) as a substrate in 0.05 M glycine-NaOH buffer, pH 9.3 and incubating for 20 minutes at 37 C. The reaction is stopped by adding 75 ul of 0.2 N NaOH/well and absorbance at 405/490 nm is measured on a Dynatech MR 700 plate reader. Results are expressed as relative activities compared to a BMP-7 standard.
BMP interactions with Type I and Type II receptors can induce alkaline phosphatase activity, a marker for osteoblast activity, in ROS cells. An assay procedure as described earlier (Maliakal, J. C., Asahina, I., Hauschka, P. V., and Sampath, T. K. (1994) Growth factors 11, 227-234) was used to determine the biological activities of TDFRP compounds. In a typical experiment, rat osteosarcoma (17/2.8) cells are plated in 96 well plates (3.0×10^4 cells/well) and incubated overnight at 37° C. in 5-6% CO2 incubator. […] The cellular content of alkaline phosphatase activity is determined by the method of Reddi and Huggins (Reddi, A. H., and Huggins, C. B (1972) Proc. Natl. Acad. Sci. USA 69, 1601-1605). […] The reaction is stopped by adding 75 ul of 0.2 N NaOH/well and absorbance at 405/490 nm is measured on a Dynatech MR 700 plate reader. Results are expressed as relative activities compared to a BMP-7 standard.

Assay [3] has as its system NTN mice. The note with it: cited from earlier work.

Consider “CYFDDSSNVLCKKYRS (disulfide 1-11 (inferred); not fully specified) [SEQ ID NO:45]”, for which, in the assay with NTN mice [1], the glomerulosclerosis entry is “attenuated the severity of glomerulosclerosis”, the matrix deposition result is reported as “attenuated the amount of matrix deposition” and the tubular atrophy result is “attenuated the severity of tubular atrophy”. In addition, the “progression of renal fibrosis” value in the assay with NTN mice [1] (5 mg/kg) is listed as “significantly attenuated”. For the same molecule, in assay [2], the “induction of alkaline phosphatase activity” value was “did not induce”.

B1: BMP-7: recombinant human mature BMP-7 (BMP-7 or TDF-1), positive control therapy (protein)
chain: STGSKQRSQNRSKTPKNQEALRMANVAENSSSDQRQACKKHELYVSFRDLGWQDWIIAPEGYAAYYCEGECAFPLNSYMNATNHAIVQTLVHFINPETVPKPCCAPTQLNAISVLYFDDSSNVILKKYRNMVVRACGCH
Turning to B1, the “progression to chronic renal disease” value with NTN mice [3] (about 300 micrograms/kg, starting after one week of NTN) is on record as “prevent progression to chronic renal disease”. Moreover, the renal pathology result in the assay with NTN mice [3] (treatment from week 3 or week 4 through week 6) is recorded as “almost completely reversed renal pathology”.
